This note sets out measurements from patent US10967032B2, “Optimum ratio for herbs combination obtained by using scientific-based formula for hypertension treatment and a composition thereof” (priority 2017, dated 2021).

The test system of assay [1] is inositol triphosphate receptor (IP3R). As to the kind of experiment: IP3R study: PE-induced contraction of pre-treated endothelium-denuded aortic rings. In kind it is cell-based, rat. The note with it: 100 μM pre-incubation; P<0.001. As for the experimental part:
Similar with the VOCC mechanism study, three sets of experiments were carried out for investigating IP3R including the positive control set by applying the 2-APB (100 μM), control set (without treatment), and experimental sets by applying F1-2 (100 μl of 0.5, 2, and 8 mg/ml, separately, which equals to final concentration of 0.005, 0.02, and 0.08 mg/ml in tissue bath), in the endothelium-denuded isolated aortic rings. Similar protocol as elaborated in VOCC mechanism study was used to investigate this mechanism study. The only step different from VOCC mechanism study was the cumulative addition of CaCl2 was replaced by adding PE (1 μM) and left for 20 minutes to induce transient contraction after the 20 minutes pre-incubation with either 2-APB (positive control), F1-2 (experimental sets). The Cmax values were recorded and compared among each other.

The subject of assay [2] is voltage-operated calcium channel (VOCC). In words: VOCC study: CaCl2-induced vasoconstriction of pre-treated aortic rings. The settings on record: 0.1, 0.3, 1 μM pre-incubation. In kind it is cell-based, rat.
Method: The experiment started by rinsing the mounted aortic rings with normal Krebs' solution for 3 times at 10 minutes interval. After that, the aortic rings were rinsed with EGTA (0.2 mM) contained Ca^2+-free high K^+ Krebs' solution for 10 minutes to eradicate the Ca^2+ residue, followed by rinsing with Ca^2+-free high K^+ Krebs' solution for twice at 10 minutes intervals. The resting potential was re-adjusted to 1.0 g before the application of any chemicals. In the control set, CaCl2 was added cumulatively (0.01-10 mM) into the tissue bath at 3 minutes interval. […] In the experimental groups, the F1-2 was added into tissue baths for 20 minutes before the addition of CaCl2. After that, the concentration-response curves were constructed, and maximum contraction (Cmax) values were recorded and compared to each other.
For assay [3], the system named is spontaneous hypertensive rats (SHRs). As to the kind of experiment: Antihypertensive effect in SHRs, 28 days oral administration, tail-cuff SBP, DBP, MAP. In kind it is in vivo, rat. The settings on record: 80 mg/kg oral. As for the experimental part: All the orally administrated drugs were freshly prepared on the day the experiment was carried out. Thirty male SHRs were divided into five groups (n=6 per group) as such negative control, positive control (80 mg/kg of propranolol), and experimental groups (three different dosages for different groups). The weight, systolic BP, diastolic BP, and MAP of all SHRs in five groups were determined before the experiment was carried out and assigned as results for week 0. The negative control group of SHRs was treated with 5 ml/kg of distilled water. The positive control group was treated with 80 mg/kg of propranolol. The experimental groups were treated with 0.24273 (small dose), 0.48546 (medium dose), and 0.97092 g/kg (high dose) of F1-2, separately. Propranolol and F1-2 were prepared by dissolving in 0.5% of CMC prior to the administration. All drugs were orally administrated by using the 14-sized curved feeding needle (Kent Scientific Corporation, Torrington, Conn., USA) every morning after eight hours of fasting the night before, and were treated for 28 days consecutively with their weight, systolic BP, diastolic BP, and MAP measured once a week.
The SBP, DBP, and MAP were measured by using tail-cuff method with the non-invasive blood pressure measurement system, CODA (Kent Scientific Corporation, Torrington, Conn., USA) which was equipped with a controller, laptop CODA software, cuffs, animal restrainers, infrared warming pads, and infrared thermometer. The measurements were performed by the same researcher at the same daytime once weekly. Before the experiments commenced, the SHRs were housed in the restrainer according to their body size and pre-warmed on the warming plate at 32° C. and were covered by warming blanket for at least 15 minutes to intensify the pulsation of the tail artery. The measurements were repeated at least […] for each SHR to obtain at least six accepted measurements (n=6) by the CODA program. The obtained SBP, DBP, MAP of positive control and experimental groups were compared to the negative control.

Consider `NCCOB(c1ccccc1)c1ccccc1` [Formula 2-APB, 2-APB], for which the “contraction tension abolished compared to control” value in assay [1] is “approximately 97%”. As to `COC(=O)C1=C(C)NC(C)=C(C(=O)OC)C1c1ccccc1[N+](=O)[O-]` [nifedipine], the “suppression of the contractile tone compared to control” value in assay [2] was “at least 80%”. On to `CC(C)NCC(O)COc1cccc2ccccc12` (centres unmarked) [propranolol], for which the DBP in assay [3] (28 days, control 189.19±3.61) is given as 139.69±3.15 mmHg. For the same compound, the MAP in assay [3] (28 days, control 200.97±3.22) is on record as 152.06±3.10 mmHg. Besides, in assay [3] (week 4 (28 days), control 225.81±2.77), the SBP was found to be 182.08±2.38 mmHg.
